Counter-ions that a name gives are not always drawn. Like-named read-outs stand apart in the source and are kept apart here.
Legend:
[1] = molecular target: T1, HIV-1 RT-associated RNase H (Human immunodeficiency virus type 1 group M subtype B, UniProt P04585); test: HIV-1 RT-associated DNA polymerase-independent RNase H activity determination; type: biochemical, HIV-1 group M subtype B; details: full length HIV-1 wt RT, no pre-incubation with the enzyme, 1 h at 37 °C; concentration reducing RNase H activity by 50%
T1 construct: The full length HIV-1 RT group M subtype B was expressed and purified; made in house
Description: The full length HIV-1 RT group M subtype B was expressed and purified as previously described. The HIV RT-associated RNase H activity was measured as described. […] Reactions were stopped by the addition of EDTA and products were measured with a Perkin–Elmer Victor 3 multilabel counter plate reader (Waltham, MA, USA) at excitation–emission wavelength of 490/528 nm (Table 1).

[2] = molecular target: T2, HIV-1 RT-associated RNA-dependent DNA-polymerase (RDDP) (Human immunodeficiency virus type 1 group M subtype B, UniProt P04585); test: biochemical; set-up: species or system HIV-1 group M subtype B
T2 construct: The full length HIV-1 RT group M subtype B was expressed and purified; made in house
Description: The HIV-1 RT-associated RNA-Dependent DP activity was measured as previously described. […] The enzymatic reaction was stopped by the addition of EDTA.

Row | Structure (SMILES) | IC50 [1] [µM] | IC50 [2] [µM] | IC50 ([2]; read-out: RDDP IC50) [µM] | melting point
1 | COc1ccc(-c2ccccc2C(N)=O)cc1/C=N/Nc1nc(-c2ccc([N+](=O)[O-])cc2)cs1 [EMAC2063, 2-{3-[(2-{4-[4-nitrophenyl]-1,3-thiazol-2-yl}hydrazin-1-ylidene)methyl]-4-methoxyphenyl}benzamide bromide] | 4.5 ± 0.5 | 8 |  | 
2 | COc1ccc(-c2ccccc2)cc1C=NNc1nc(-c2cccc(Cl)c2)cs1 [EMAC2058, 4-(3-chlorophenyl)-2-[2-[(2-methoxy-5-phenylphenyl)methylidene]hydrazin-1-yl]-1,3-thiazole bromide] | 46 ± 1 |  | 56.5 ± 9.5 | 
3 | COc1ccc(-c2csc(N/N=C/c3cc(-c4ccccc4C(N)=O)ccc3OC)n2)cc1 [EMAC2060, 2-{4-methoxy-3-[(1E)-{2-[4-(4-methoxyphenyl)-1,3-thiazol-2-yl]hydrazin-1-ylidene}methyl]phenyl}benzamide bromide] | 21.5 ± 3.5 |  | 27 ± 1 | 
4 | COc1ccc(-c2ccc(F)cc2)cc1C=NNc1nc(-c2ccc(Cl)cc2)cs1 [EMAC2070, 4-(4-chlorophenyl)-2-[-2-{[5-(4-fluorophenyl)-2-methoxyphenyl]methylidene}hydrazin-1-yl]-1,3-thiazole bromide] | 55.5 ± 1.5 |  | 59 ± 6 | 
5 | COc1ccc(-c2ccccc2C(N)=O)cc1/C=N/Nc1nc(-c2ccc([N+](=O)[O-])cc2)cs1 (as salt: bromide) [EMAC2063, 2-{3-[(2-{4-[4-nitrophenyl]-1,3-thiazol-2-yl}hydrazin-1-ylidene)methyl]-4-methoxyphenyl}benzamide bromide] |  |  |  | 208 °C (dec.)
6 | COc1ccc(-c2ccccc2C(N)=O)cc1C=NNc1nc(-c2ccc(Cl)c(Cl)c2)cs1 [EMAC2061, 2-{3-[{2-[4-(3,4-dichlorophenyl)-1,3-thiazol-2-yl]hydrazin-1-ylidene}methyl]-4-methoxyphenyl}benzamide bromide] | 6.5 ± 2.5 |  | 19.5 ± 0.5 | 
7 | COc1ccc(-c2csc(NN=Cc3cc(-c4ccccc4Br)ccc3OC)n2)cc1 [EMAC2064, 2-{[5-(2-bromophenyl)-2-methoxyphenyl]methylidene}hydrazin-1-yl]-4-(4-methoxyphenyl)-1,3-thiazole bromide] | 13 ± 4 |  | 32.5 ± 2.5 | 
8 | COc1ccc(-c2csc(NN=Cc3cc(-c4ccccc4)ccc3OC)n2)cc1 [EMAC2056, 2-[2-[(2-Methoxy-5-Phenylphenyl)methylidene]hydrazin-1-yl]-4-(4-Methoxyphenyl)-1,3-Thiazole Bromide] | 19.5 ± 5.5 |  | 36 ± 5 | 
9 | COc1ccc(-c2ccc(F)cc2)cc1C=NNc1nc(-c2ccc(Cl)c(Cl)c2)cs1 [EMAC2069, 4-(3,4-dichlorophenyl)-2-[-2-{[5-(4-fluorophenyl)-2-methoxyphenyl]methylidene}hydrazin-1-yl]-1,3-thiazole bromide] | 52.5 ± 10.5 |  | 66 ± 2 | 
10 | COc1ccc(-c2ccc(F)cc2)cc1C=NNc1nc(-c2ccc([N+](=O)[O-])cc2)cs1 [EMAC2071, [(4-{2-[2-{[5-(4-fluorophenyl)-2-methoxyphenyl]methylidene}hydrazin-1-yl]-1,3-thiazol-4-yl}phenyl)nitroso]oxidanol bromide] | 19 ± 1 |  | 47.5 ± 11.5 | 
11 | COc1ccc(-c2ccccc2C(N)=O)cc1C=NNc1nc(-c2ccc(Cl)cc2)cs1 [EMAC2062, 2-{3-[{2-[4-(4-chlorophenyl)-1,3-thiazol-2-yl]hydrazin-1-ylidene}methyl]-4-methoxyphenyl}benzamide bromide] | 8 ± 2 |  | 17 ± 2 | 
12 | COc1ccc(-c2ccccc2)cc1C=NNc1nc(-c2ccc(Cl)c(Cl)c2)cs1 [EMAC2057, 4-(3,4-dichlorophenyl)-2-[2-[(2-methoxy-5-phenylphenyl)methylidene]hydrazin-1-yl]-1,3-thiazole bromide] | 57 ± 5 |  | 88 ± 12 | 
13 | COc1ccc(-c2csc(NN=Cc3cc(-c4ccc(F)cc4)ccc3OC)n2)cc1 [EMAC2068, 2-[2-{[5-(4-fluorophenyl)-2-methoxyphenyl]methylidene}hydrazin-1-yl]-4-(4-methoxyphenyl)-1,3-thiazole bromide] | 29.5 ± 3.5 |  | 61.5 ± 8.5 | 
14 | COc1ccc(-c2ccccc2Br)cc1C=NNc1nc(-c2ccc(Cl)cc2)cs1 [EMAC2066, 2-{[5-(2-bromophenyl)-2-methoxyphenyl]methylidene}hydrazin-1-yl]-4-(4-cholophenyl)-1,3-thiazole bromide] | 47 ± 3 |  | 71.5 ± 6.5 | 
15 | COc1ccc(-c2ccccc2Br)cc1C=NNc1nc(-c2ccc([N+](=O)[O-])cc2)cs1 [EMAC2067, 2-{[5-(2-bromophenyl)-2-methoxyphenyl]methylidene}hydrazin-1-yl]-4-(4-nitrophenyl)-1,3-thiazole bromide] | 27 ± 5 |  | 30 ± 3 | 
16 | COc1ccc(-c2ccccc2)cc1C=NNc1nc(-c2ccc([N+](=O)[O-])cc2)cs1 [EMAC2059, 4-(4-nitrophenyl)-2-[2-[(2-methoxy-5-phenylphenyl)methylidene]hydrazin-1-yl]-1,3-thiazole bromide] | 12.8 ± 4.3 |  | 39.5 ± 11.5 | 
17 | COc1ccc(-c2ccccc2Br)cc1C=NNc1nc(-c2ccc(Cl)c(Cl)c2)cs1 [EMAC2065, 2-{[5-(2-bromophenyl)-2-methoxyphenyl]methylidene}hydrazin-1-yl]-4-(3,4-dicholophenyl)-1,3-thiazole bromide] | 15 ± 1 |  | 53.5 ± 15.5 | 
